# Measured values: patent publication US20260317319A1, “NOVEL ERGOLINES AND METHODS OF TREATING MOOD DISORDERS” (Gilgamesh Pharma Inc., priority 2023, published 2026)
# Read-outs that look alike come from different tables or passages of the source.
# Key:
# [1] = biological target: T1, 5-HT2B receptor (Homo sapiens, UniProt P41595); experiment: cell-based; type: cell-based; conditions: Ca2+ flux; for EC50: HEK293
# T1 construct: expressed in transfected cells; host or cells: HEK293, stably transfected
# Summary of the method: (§1)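 FLIPR Tetra fluorescence read-out of calcium flux after compound addition. Receptor-expressing stable lines were used (HEK293 for 2A/2B; CHO with Gα15 for 1A), dye-loaded with Fluo-4 Direct and 2.5 mM final probenecid, 50 min at 37 °C.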
# [2] = biological target: T2, 5-HT1A receptor (Homo sapiens, UniProt P08908); experiment: cell-based; conditions: agonist, Ca2+ flux; for EC50: CHO cells with Gα15
# T2 construct: expressed in transfected cells; host or cells: CHO cells, stably transfected
# T2 sequence (P08908 1-422): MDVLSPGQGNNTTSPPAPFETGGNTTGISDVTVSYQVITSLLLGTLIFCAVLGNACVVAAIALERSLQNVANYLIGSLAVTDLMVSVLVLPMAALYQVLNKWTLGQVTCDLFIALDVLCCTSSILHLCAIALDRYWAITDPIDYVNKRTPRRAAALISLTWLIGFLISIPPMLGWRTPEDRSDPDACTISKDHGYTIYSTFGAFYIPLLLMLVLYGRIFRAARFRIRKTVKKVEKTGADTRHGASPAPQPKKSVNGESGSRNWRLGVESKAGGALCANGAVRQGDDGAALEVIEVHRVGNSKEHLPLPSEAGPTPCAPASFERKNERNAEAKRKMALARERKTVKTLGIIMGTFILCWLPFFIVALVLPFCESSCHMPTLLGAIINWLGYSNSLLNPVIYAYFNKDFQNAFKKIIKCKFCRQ
# Summary of the method: as §1
# [3] = biological target: T3, 5-HT1B receptor (Homo sapiens, UniProt P28222); experiment: cAMP accumulation functional assay at 5-HT1B; type: cell-based; conditions: agonist, cAMP accumulation
# T3 construct: expressed in transfected cells
# Summary of the method: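 Agonist activity measured as cAMP accumulation in cells stably transfected with human 5-HT1B. Cells incubated 60 min at RT, then detection reagent added for a further 60 min at RT before plate reading.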
# [4] = in vitro; type: in vitro ADME, human; conditions: HLM 0.50 mg/mL, NADPH 1 mM, 1 μM compound, pH 7.4, 37° C., 60 min
# [5] = in vitro; type: in vitro ADME, mouse; conditions: MLM (male CD-1) 0.50 mg/mL, NADPH 1 mM, 1 μM compound, pH 7.4, 37° C., 60 min
# Source text: MLM Stability Pooled MLM from male CD-1 mice (BIOIVT M00501) were used.
# [6] = in vitro; type: in vitro ADME, rat; conditions: RLM (male Sprague-Dawley) 0.50 mg/mL, NADPH 1 mM, 1 μM compound, pH 7.4, 37° C., 60 min
# Source text: RLM Stability Pooled RLM from male Sprague-Dawley rats (Xenotech R1000) were used.
# [7] = biological target: T4, 5-HT2C receptor (Homo sapiens, UniProt P28335); experiment: Ca2+ flux functional assay at 5-HT2C (WuXi 5-HT2C protocol); type: cell-based; design: expressed in transfected cells
# T4 sequence (P28335 33-458): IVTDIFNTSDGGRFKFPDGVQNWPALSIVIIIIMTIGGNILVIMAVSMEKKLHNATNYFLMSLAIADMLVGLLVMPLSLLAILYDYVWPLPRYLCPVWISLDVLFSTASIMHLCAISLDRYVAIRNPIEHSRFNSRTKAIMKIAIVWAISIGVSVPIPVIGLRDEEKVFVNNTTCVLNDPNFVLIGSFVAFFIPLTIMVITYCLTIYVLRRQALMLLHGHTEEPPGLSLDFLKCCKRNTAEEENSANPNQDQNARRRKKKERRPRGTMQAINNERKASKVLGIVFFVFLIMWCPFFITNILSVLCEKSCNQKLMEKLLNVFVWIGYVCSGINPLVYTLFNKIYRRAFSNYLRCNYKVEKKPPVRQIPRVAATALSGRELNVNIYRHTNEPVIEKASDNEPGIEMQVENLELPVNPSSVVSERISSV
# Protocol: Disclosed compounds were tested for agonist activity at several serotonin receptor subtypes (5-HT2A, […], 5-HT2C, and 5-HT1A) using Ca^2+ flux functional assays and the 5-HT1B receptor using a cAMP accumulation assay, with the results summarized in Table 4. […] Potent agonist activity was also observed at the other serotonin receptors tested, although the selectivity profile among the receptors varied across compounds. […] However, at the same time, the N-propyl compounds were more efficacious agonists at 5-HT2B than the corresponding N-methyl compounds. The selectivity of disclosed compounds for 5-HT2A over 5-HT2C and 5-HT1A was less predictable and varied widely across compounds. […] An azetidinyl amide substituent tended to increase potency at 5-HT1A relative to 5-HT2A.
# Functional Assays at 5-HT2A, 5-HT2B, and 5-HT1A. Agonist activity at 5-HT2A, 5-HT2B, 5HT2C and 5-HT1A receptors was determined using a FLIPR Ca^2+ flux assay at WuXi AppTec (Hong Kong) Limited according to their standard protocols. Briefly, stably transfected cells expressing the receptor of interest and Gα15 in the case of 5-HT1A (HEK293 for 5-HT2A and 5-HT2B; CHO cells for 5-HT1A) were grown and plated in a 384 well plate and incubated at 37° C. and 5% CO2 overnight. A solution of 250 mM probenecid in 1 mL FLIPR assay buffer was prepared fresh. This was combined with a fluorescent dye (Fluo-4 Direct™) to make a final assay concentration of 2.5 mM. Compounds were diluted 1:3.16 for 10 points and 750 nL was added to a 384 well compound plate using ECHO along with 30 μL assay buffer. The fluorescent dye was then added to the assay plate along with assay buffer to a final volume of 40 μL. The cell plate was incubated for 50 min at 37° C. and 5% CO2 and placed into the FLIPR Tetra along with the compound plate. 10 μL of references and compounds were then transferred from the compound plate into the cell plate and the fluorescent signal was read.
# [8] = biological target: T5, 5-HT2A receptor (Homo sapiens, UniProt P28223); experiment: biochemical; type: binding; design: expressed in transfected cells; host or cells: HEK293, stably transfected; conditions: [3H]ketanserin 1 nM; HEK293 stable cell line; 1 h, 25 °C
# Summary of the method: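 Affinity was measured in radioligand binding experiments using [^3H]ketanserin as the labelled ligand, following methods adapted from published procedures.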
# [9] = biological target: T5, 5-HT2A receptor; experiment: cell-based; type: cell-based; design: expressed in transfected cells; host or cells: HEK293, stably transfected; conditions: Ca2+ flux; for EC50: HEK293
# Summary of the method: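 FLIPR Ca2+ flux agonist assay using stably transfected HEK293 (5-HT2A, 5-HT2B) or CHO cells co-expressing Gα15 (5-HT1A). Cells loaded with Fluo-4 Direct plus 2.5 mM probenecid (final) for 50 min at 37 °C, then compound added and fluorescence read.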
# [10] = biological target: T5, 5-HT2A receptor; experiment: cell-based; type: cell-based; conditions: beta-arrestin recruitment
# Summary of the method: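 PathHunter β-arrestin recruitment (enzyme fragment complementation): 5-HT2A fused to ProLink donor in cells co-expressing β-arrestin–β-galactosidase acceptor, seeded and held at 37° C before testing. Chemiluminescent read-out; agonist % activity = (sample RLU − vehicle)/(max control ligand − vehicle) × 100.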
# [11] = system: C57BL/6 mice; experiment: Mouse head twitch response (HTR) assay (observer-counted); type: in vivo; conditions: SC
# Protocol: Agonists of the 5-HT2A receptor are well known to induce this effect in rodents and the potency of this HTR is correlated with hallucinogenic potency in humans.
# Animals. Adult male C57BL/6 mice, aged 6-8 weeks (body weight 20-25 g) were used in this experiment. Animals were housed under controlled temperatures and 12-hour light/dark cycles (lights on between 07:00-19:00 h), with ad libitum food and water. This study was carried out in strict accordance with the requirements of the Committee for the Purpose of Control and Supervision of Experiments on Animals (CPCSEA), India. All efforts were made to minimize suffering.
# Procedure. Mice were administered one dose of the drug and immediately placed into a small open field for behavioral observation. Animals were observed continuously for 20 mins and the number of head twitches (HTs) were counted by an observer blind to the treatment condition.
# Statistical Analysis. The data points shown are the mean±standard error of the mean (SEM). Analysis was performed using GraphPad Prism 6. Curves were fit using a non-linear gaussian distribution to calculate ED50 and Emax values.
# Additional disclosed compounds were tested in the mouse head twitch response (HTR) assay according to the procedure described in Example 57 (administered SC). […] Lastly, compounds with much larger benzyl and phenethyl substituents on the amine nitrogen (e.g., 10 and 11) were low efficacy in this assay, consistent with their bias toward arrestin signaling (see Example 55).
# T5 sequence (P28223 whole entry): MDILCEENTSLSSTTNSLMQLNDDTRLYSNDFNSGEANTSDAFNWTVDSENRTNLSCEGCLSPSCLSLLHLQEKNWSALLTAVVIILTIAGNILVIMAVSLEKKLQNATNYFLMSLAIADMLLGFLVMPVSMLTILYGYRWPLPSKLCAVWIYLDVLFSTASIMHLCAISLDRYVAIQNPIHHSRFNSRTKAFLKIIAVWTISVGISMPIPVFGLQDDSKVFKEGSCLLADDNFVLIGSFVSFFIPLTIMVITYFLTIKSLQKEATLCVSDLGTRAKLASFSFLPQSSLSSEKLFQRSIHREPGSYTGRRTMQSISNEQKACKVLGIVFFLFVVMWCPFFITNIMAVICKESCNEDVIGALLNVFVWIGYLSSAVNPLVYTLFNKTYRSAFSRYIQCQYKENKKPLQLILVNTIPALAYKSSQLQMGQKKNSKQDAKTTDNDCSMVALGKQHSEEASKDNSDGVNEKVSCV
# T1 sequence (P41595 whole entry): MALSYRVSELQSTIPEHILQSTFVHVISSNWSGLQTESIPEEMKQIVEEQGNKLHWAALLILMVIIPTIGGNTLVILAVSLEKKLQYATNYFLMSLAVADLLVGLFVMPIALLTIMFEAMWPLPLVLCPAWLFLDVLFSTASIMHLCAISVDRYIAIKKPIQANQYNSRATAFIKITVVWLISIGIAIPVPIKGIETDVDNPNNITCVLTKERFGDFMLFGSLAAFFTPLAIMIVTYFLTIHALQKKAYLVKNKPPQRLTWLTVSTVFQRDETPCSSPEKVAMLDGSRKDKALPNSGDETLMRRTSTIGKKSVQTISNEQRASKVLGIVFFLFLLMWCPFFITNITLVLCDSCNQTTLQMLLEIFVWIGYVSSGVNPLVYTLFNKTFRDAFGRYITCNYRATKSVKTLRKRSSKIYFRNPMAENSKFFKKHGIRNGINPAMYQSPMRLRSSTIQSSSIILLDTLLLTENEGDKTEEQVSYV
# T3 sequence (P28222 whole entry): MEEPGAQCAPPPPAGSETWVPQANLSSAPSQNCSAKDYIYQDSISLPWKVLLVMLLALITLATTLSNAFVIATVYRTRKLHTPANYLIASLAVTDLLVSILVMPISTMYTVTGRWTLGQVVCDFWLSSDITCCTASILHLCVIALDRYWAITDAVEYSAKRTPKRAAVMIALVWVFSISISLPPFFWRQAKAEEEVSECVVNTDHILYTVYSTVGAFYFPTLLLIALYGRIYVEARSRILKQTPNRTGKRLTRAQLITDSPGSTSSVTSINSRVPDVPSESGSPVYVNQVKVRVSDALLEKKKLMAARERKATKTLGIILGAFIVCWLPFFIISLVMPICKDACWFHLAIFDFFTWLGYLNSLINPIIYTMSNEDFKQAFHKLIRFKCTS
smiles,measurement,setting,value
CCN(CC)C(=O)[C@@H]1C=C2c3cccc4[nH]cc(c34)C[C@H]2N(Cc2ccnc(OC)c2)C1 [Compound 79],EC50,[1]; agonist,> 10 µM
same,5-HT2B % Act @ Max Dose,"[1]; agonist, HEK293, max dose",1.38%
same,EC50,[2],8.05 µM
same,5-HT1A % Act @ Max Dose,"[2]; CHO cells with Gα15, max dose",77.71%
same,EC50,[3],> 10 µM
same,5-HT1B % Act @ Max Dose,[3]; max dose,42.45%
same,Intrinsic clearance (Clint),[4],61.2 µL/min/mg
same,half-life (t1/2),[4],22.7 min
same,Intrinsic clearance (Clint),[5],298.4 µL/min/mg
same,half-life (t1/2),[5],4.6 min
same,Intrinsic clearance (Clint),[6],80.5 µL/min/mg
same,half-life (t1/2),[6],17.2 min
same,EC50,"[7]; agonist, Ca2+ flux, tested using WuXi 5-HT2C protocol, read-out: 5-HT2C EC50 (* WuXi protocol)",> 10 µM
same,5-HT2C % Act @ Max Dose (* WuXi protocol),"[7]; agonist, tested using WuXi 5-HT2C protocol, max dose",0.60* %
same,Ki,[8],0.182 µM
same,EC50,[9]; agonist,2.5 µM
same,5-HT2A % Act @ Max Dose,"[9]; agonist, HEK293, max dose",68.17%
"CCN(CC)C(=O)[C@@H]1C=C2c3cccc4[nH]cc(c34)C[C@H]2N(Cc2ccccc2C)C1 [Compound 99, (6aR,9R)—N,N-diethyl-7-(2-methylbenzyl)-4,6,6a,7,8,9-hexahydroindolo[4,3-fg]quinoline-9-carboxamide]",Emax,"[1]; HEK293, agonist, HEK293, max dose, read-out: 5-HT2B % Act @ Max Dose",1.41%
same,EC50,[1]; agonist,> 10 µM
same,Emax,"[2]; CHO, CHO cells with Gα15, max dose, read-out: 5-HT1A % Act @ Max Dose",69.9%
same,EC50,[2],19.6 µM
same,microsomal CLint,"[4]; human, microsomes, read-out: Intrinsic clearance (Clint)",86.4 µL/min/mg
same,half-life,"[4]; human, microsomes, read-out: half-life (t1/2)",16 min
same,microsomal CLint,"[5]; mouse, microsomes, read-out: Intrinsic clearance (Clint)",426 µL/min/mg
same,half-life,"[5]; mouse, microsomes, read-out: half-life (t1/2)",3.3 min
same,microsomal CLint,"[6]; rat, microsomes, read-out: Intrinsic clearance (Clint)",174 µL/min/mg
same,half-life,"[6]; rat, microsomes, read-out: half-life (t1/2)",8 min
same,EC50,[7],> 10 µM
same,Emax,"[7]; agonist, tested using WuXi 5-HT2C protocol, max dose, read-out: 5-HT2C % Act @ Max Dose (* WuXi protocol)",0.56%
same,Ki,[8],0.00922 µM
same,Emax,"[9]; HEK293, agonist, HEK293, max dose, read-out: 5-HT2A % Act @ Max Dose",73.6%
same,EC50,[9]; agonist,1.21 µM
C[C@H]1C[C@H](C)N1C(=O)[C@@H]1C=C2c3cccc4[nH]cc(c34)C[C@H]2N(C)C1 [Int11],5-HT2A Arrestin % Act @ Max Dose,"[10]; agonist, max dose",49.27%
same,5-HT2A arrestin agonist class,[10],partial agonists
same,5-HT2A arrestin Emax (bound),[10]; partial agonists,< 60%
same,ED50 (HTR),"[11]; 20 min, curve fit poor in some cases",0.0154 mg/kg
same,"Emax, HTR/20 min",[11]; curve fit poor in some cases,10.93 HTR/20 min
same,efficacy in HTR assay,[11]; maximal effect,lower efficacy than analogous compounds bearing other amide substituents
same,# HTR/20 min at Most Efficacious Dose,[11]; most efficacious dose 0.1 mg/kg,10.667 HTR/20 min
same,Intrinsic clearance (Clint),[4],53.9 µL/min/mg
same,half-life (t1/2),[4],25.7 min
same,Intrinsic clearance (Clint),[5],100 µL/min/mg
same,half-life (t1/2),[5],13.9 min
same,Intrinsic clearance (Clint),[6],25.3 µL/min/mg
same,half-life (t1/2),[6],54.9 min
